Data taken from patent US20060189512A1, “Compositions containing botanical extracts rich in phlorizin and methods for using such compositions in blood glucose modification and to affect aging” (priority 2005, published 2006).

Target: T1, SIRT1 (histone deacetylase) (Homo sapiens, UniProt Q96EB6)
T1 construct: purchased BIOMOL Research Laboratories, Inc., Plymouth Meeting, Pa
T1 sequence (Q96EB6 1-747): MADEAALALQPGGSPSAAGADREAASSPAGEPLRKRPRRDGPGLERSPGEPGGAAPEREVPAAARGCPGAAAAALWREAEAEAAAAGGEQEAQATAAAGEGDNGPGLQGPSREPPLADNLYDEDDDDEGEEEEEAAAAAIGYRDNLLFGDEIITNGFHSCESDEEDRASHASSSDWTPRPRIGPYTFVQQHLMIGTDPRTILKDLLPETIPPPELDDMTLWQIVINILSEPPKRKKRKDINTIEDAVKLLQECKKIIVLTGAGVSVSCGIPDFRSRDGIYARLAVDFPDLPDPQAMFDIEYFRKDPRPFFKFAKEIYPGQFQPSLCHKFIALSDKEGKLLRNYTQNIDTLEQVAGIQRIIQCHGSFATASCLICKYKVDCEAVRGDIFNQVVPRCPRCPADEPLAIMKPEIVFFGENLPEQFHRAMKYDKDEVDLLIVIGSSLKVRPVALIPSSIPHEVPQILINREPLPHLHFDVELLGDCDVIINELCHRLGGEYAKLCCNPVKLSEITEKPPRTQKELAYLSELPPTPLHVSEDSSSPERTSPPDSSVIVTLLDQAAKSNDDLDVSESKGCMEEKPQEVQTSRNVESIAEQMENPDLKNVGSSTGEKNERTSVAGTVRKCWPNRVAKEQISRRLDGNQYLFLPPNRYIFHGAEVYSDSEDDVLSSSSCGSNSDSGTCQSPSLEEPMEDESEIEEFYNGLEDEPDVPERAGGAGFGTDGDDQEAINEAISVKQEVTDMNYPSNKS
Experiment: Cell-based fluorescence deacetylase assay, SIRT1 Fluorimetric Drug Discovery Kit (BIOMOL)
Description: A cell-based fluorescence deacetylase assay, SIRT1 Fluorimetric Drug Discovery Kit, obtained from BIOMOL Research Laboratories, Inc., Plymouth Meeting, Pa. was used to measure the effects of various polyphenols in apple extract on histone deacetylase activity.

Row | Molecule | Histone deacetylase activity (concentration 500 micromolar) | Histone deacetylase activity (concentration 100 micromolar) [× baseline]
1 | O=C(CCc1ccc(O)cc1)c1c(O)cc(O)cc1O [Phloretin] | 1.94 × baseline | –
2 | O=C(CCc1ccc(O)cc1)c1c(O)cc(O)cc1O[C@@H]1O[C@H](CO)[C@@H](O)[C@H](O)[C@H]1O [Phlorizin] | – | 1.36
3 | O=c1c(O)c(-c2ccc(O)c(O)c2)oc2cc(O)cc(O)c12 [Quercetin] | 4.59 × baseline | –
4 | Catechins | 1.26-1.53 × baseline | –
